Experimental data from patent publication US10618916B2, “Heterocyclic compounds as immunomodulators” (Incyte Corporation, priority 2018, dated 2020).
Read-outs that look alike come from different tables or passages of the source.

Key:
[1] = biological target: PD-1/PD-L1 protein/protein interaction (recombinant human PD-L1 and human PD-1) (Homo sapiens (Human), UniProt Q9NZQ7); test: Homogeneous Time-Resolved Fluorescence (HTRF) PD-1/PD-L1 binding assay
Experimental: Example A. Homogeneous Time-Resolved Fluorescence (HTRF) PD-1/PD-L1 Binding Assay
The assays were conducted in a standard black 384-well polystyrene plate with a final volume of 20 μL. Inhibitors were first serially diluted in DMSO and then added to the plate wells before the addition of other reaction components. The final concentration of DMSO in the assay was 1%. The assays were carried out at 25° C. in the PBS buffer (pH 7.4) with 0.05% Tween-20 and 0.1% BSA. Recombinant human PD-L1 protein (19-238) with a His-tag at the C-terminus was purchased from AcroBiosystems (PD1-H5229). Recombinant human PD-1 protein (25-167) with Fc tag at the C-terminus was also purchased from AcroBiosystems (PD1-H5257). PD-L1 and PD-1 proteins were diluted in the assay buffer and 10 μL was added to the plate well. Plates were centrifuged and proteins were preincubated with inhibitors for 40 minutes. The incubation was followed by the addition of 10 μL of HTRF detection buffer supplemented with Europium cryptate-labeled anti-human IgG (PerkinElmer-AD0212) specific for Fc and anti-His antibody conjugated to SureLight®-Allophycocyanin (APC, PerkinElmer-AD0059H). After centrifugation, the plate was incubated at 25° C. for 60 min. before reading on a PHERAstar FS plate reader (665 nm/620 nm ratio). Final concentrations in the assay were—3 nM PD1, 10 nM PD-L1, 1 nM europium anti-human IgG and 20 nM anti-His-Allophycocyanin. IC50 determination was performed by fitting the curve of percent control activity versus the log of the inhibitor concentration using the GraphPad Prism 5.0 software.

[2] = test system: U2OS/PD-L1 cells and Jurkat-PD-1-SHP cells; test: Src homology region 2 domain-containing phosphatase (SHP) assay; format: cell-based
Experimental: Example B. Src Homology Region 2 Domain-Containing Phosphatase (SHP) Assay
U2OS/PD-L1 cells (DiscoveRx Corporation) were maintained in McCoy's 5A medium with addition of 10% FBS, 0.25 μg/ml Puromycin. After removing the culture media, the cell medium was replaced with assay medium (RPMI1640 medium with 1% FBS). The U2OS/PD-L1 cells were then added in 384-well black clear bottom assay plate (CELLCOAT® Tissue Culture Plates, Greiner Bio-One) at 5000 cells per well in 20 μL assay medium. Test compounds were prepared by serial dilution in DMSO and 125 nL compound were first transferred to the 384 REMP plate well (Thermofisher) by ECHO liquid handler (Labcyte) followed with addition of 27.5 μL assay medium. 5 μL/well compounds in the assay medium were transferred to the cell plate with 0.05% DMSO in the final assay at […]. Jurkat-PD-1-SHP cells (DiscoveRx Corporation) were cultured in RPMI1640 medium supplemented with 10% FBS, 250 μg/ml Hygromycin B, 500 μg/ml G418. After the replacement of culture media with assay medium, 5,000 Jurkat-PD-1-SHP cells in 20 μL were dispensed into each well. The assay plate was incubated at 37° C., 5% CO2 for 2 hours before 2.5 μL PathHunter reagent 1 (DiscoveRx Corporation) were added to each well. The assay plate was shaken for 1 min at 350 rpm in the dark followed with addition of 10 μL PathHunter reagent 2 (DiscoveRx Corporation). Chemiluminescent signal was recorded with TopCount reader (Perkin Elmer) after incubation at room temperature for 1 hour. Wells with DMSO were served as the positive controls and wells containing no cells were used as negative controls. IC50 determination was performed by fitting the curve of percentage of control activity versus the log of the compound concentration using the GraphPad Prism 6.0 software.

[3] = test system: PD-L1 aAPC/CHO-K1 cells and Jurkat-PD-1-NFAT effector cells; test: Nuclear factor of activated T-cells (NFAT) assay; format: cell-based
Experimental: Example C. Nuclear Factor of Activated T-Cells (NFAT) Assay
PD-L1 aAPC/CHO-K1 cells (Promega) were maintained in F-12 medium with addition of 10% FBS, 200 μg/ml Hygromycin B, 250 μg/ml Geneticin (G418). Jurkat-PD-1-NFAT effector cells (Promega) were cultured in RPMI 1640 medium supplemented with 10% FBS, 100 μg/ml Hygromycin B, 500 μg/ml G418. The culture media of PD-L1 aAPC/CHO-K1 cells were first replaced with assay medium (RPMI1640 medium with 1% FBS). The PD-L1 aAPC/CHO-K1 cells were then added in a white 384-well white clear bottom assay plate (CELLCOAT® Tissue Culture Plates, Greiner Bio-One) at 8000 per well in 10 μL assay medium. Test compounds were prepared by serial dilution in DMSO and 0.8 μL test compounds in DMSO were first transferred to the 384 REMP plate well (Thermofisher) by PlateMate Plus (Thermofisher) followed with addition of 50 μL plating medium. 5 μL compounds in the assay medium were transferred to the cells with 0.4% DMSO in the final assay at 2 μM. After removing the culture media, 10,000 Jurkat-PD-1-NFAT effector cells in 5 μL assay medium was dispensed into each well. The assay plate was incubated at 37° C., 5% CO2 for 24 hours. After the assay plate was equilibrated to room temp for 15 minutes, 20 µL/well of Bio-Glo™ reagent (Promega) were added. After 8 minutes incubation at room temperature, luminescence was read at with Pherastar microplate reader (BMG Labtech). The fold of induction (FOI) was calculated based on the ratio of luminescence normalized to the DMSO wells within each assay plate. The maximum percentage of induction was reported based on the ratio between the highest FOI of each compound and the maximum FOI of control compound within each assay plate. Wells with DMSO were served as the negative controls and wells containing control compound with the highest FOI were used as positive controls. EC50 determination was performed by fitting the curve of percent control activity versus the log of the compound concentration using the GraphPad Prism 6.0 software.

PD-L1 = PD-L1 (Homo sapiens (Human), UniProt Q9NZQ7); test: PD-L1 whole blood internalization assay; format: cell-based; conditions: 24 HR, PD-L1 expression on CD14+ cells, human interferon γ
Experimental: Example D. PD-L1 Whole Blood Internalization Assay
To determine PD-L1 internalization in human whole blood, normal human blood (Biological Specialty Corp, Colmar. Pa.) was incubated in the presence or absence of a concentration range of test compounds and 1 ng/ml human interferon γ (R&D Systems Inc. Minn. […] Blood was then stained with PD-L1 (MIH1, eBioscience; or BD Biosciences San Jose, Calif.), CD14 (Life Technologies, Carlsbad, Calif.) for 30 minutes in the dark at room temperature. Whole Blood/red cells were lysed/fixed (lysis buffer BD Biosciences) for 5 minutes at 37° C. in the dark and then centrifuged at 1600 RPM for 5 minutes. Cells were resuspended in Stain Buffer (BD Bioscience, San Jose, Calif.) and transferred into 96 well round bottom plates (Corning). Cells were gated on CD14+(BD Biosciences) and PD-L1 expression determined by mean fluorescence intensity (MFI) (BD LSRFortessa™ X-20). IC50 determination was performed by fitting the curve of compound percent inhibition versus the log of the compound concentration using the GraphPad Prism 7.0 software.

Chain of PD-L1 (Q9NZQ7 19-290): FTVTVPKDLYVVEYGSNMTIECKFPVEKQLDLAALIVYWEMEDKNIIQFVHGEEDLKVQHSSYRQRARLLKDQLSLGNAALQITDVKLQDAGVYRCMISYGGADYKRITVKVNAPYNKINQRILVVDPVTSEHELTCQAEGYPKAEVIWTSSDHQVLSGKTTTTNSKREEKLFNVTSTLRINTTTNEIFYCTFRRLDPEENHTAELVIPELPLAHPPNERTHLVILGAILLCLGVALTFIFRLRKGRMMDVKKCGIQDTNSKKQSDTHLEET
Chain of PD-1/PD-L1 protein/protein interaction (recombinant human PD-L1 and human PD-1) (Q9NZQ7 19-238): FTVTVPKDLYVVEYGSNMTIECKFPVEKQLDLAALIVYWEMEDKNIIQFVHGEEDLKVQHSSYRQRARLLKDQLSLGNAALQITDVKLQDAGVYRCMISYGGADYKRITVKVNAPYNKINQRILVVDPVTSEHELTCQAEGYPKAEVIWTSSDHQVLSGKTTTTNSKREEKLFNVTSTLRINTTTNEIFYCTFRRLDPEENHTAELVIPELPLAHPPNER

SMILES	IC50 [1] [nM]	IC50 ([2]; Homo sapiens, U2OS) [nM]	IC50 (PD-L1) [nM]	IC50 [2] [nM]	EC50 ([3]; Cricetulus griseus, CHO-K1) [nM]	EC50 [3] [nM]
Cn1c(C(=O)Nc2cccc(-c3cccc(NC(=O)c4nc5c(n4C)CCN(C4CCC(O)CC4)C5)c3Cl)c2Cl)nc2c1CCN(CCC13CCC(C(=O)O)(CC1)C3)C2 (single isomer, unassigned) [60 (compound 1), 4-(2-(2-((2,2′-dichloro-3′-(5-(4-hydroxycyclohexyl)-1-methyl-4,5,6,7-tetrahydro-1H-imidazo[4,5-c]pyridine-2-carboxamido)-[1,1′-biphenyl]-3-yl)carbamoyl)-1-methyl-1,4,6,7-tetrahydro-5H-imidazo[4,5-c]pyridin-5-yl)ethyl)bicyclo[2.2.1]heptane-1-carboxylic Acid]	≤ 5	≤ 10	10 to 100	–	≤ 10	–
Cn1c(C(=O)Nc2cccc(-c3cccc(NC(=O)c4nc5c(n4C)CCN(C4CCC(O)CC4)C5)c3Cl)c2Cl)nc2c1CCN(CCC13CCC(C(=O)O)(CC1)C3)C2 (single isomer, unassigned) [60 (compound 2), 4-(2-(2-((2,2′-dichloro-3′-(5-(4-hydroxycyclohexyl)-1-methyl-4,5,6,7-tetrahydro-1H-imidazo[4,5-c]pyridine-2-carboxamido)-[1,1′-biphenyl]-3-yl)carbamoyl)-1-methyl-1,4,6,7-tetrahydro-5H-imidazo[4,5-c]pyridin-5-yl)ethyl)bicyclo[2.2.1]heptane-1-carboxylic Acid]	≤ 5	–	10 to 100	≤ 10	–	≤ 10
Cc1c(NC(=O)c2nc3c(n2C)CCN(CCO)C3)cccc1-c1cccc(NC(=O)c2nc3c(n2C)CCN(CCC24CCC(C(=O)O)(CC2)C4)C3)c1Cl [Example 33, 4-(2-(2-((2-chloro-3′-(5-(2-hydroxyethyl)-1-methyl-4,5,6,7-tetrahydro-1H-imidazo[4,5-c]pyridine-2-carboxamido)-2′-methyl-[1,1′-biphenyl]-3-yl)carbamoyl)-1-methyl-1,4,6,7-tetrahydro-5H-imidazo[4,5-c]pyridin-5-yl)ethyl)bicyclo[2.2.1]heptane-1-carboxylic acid]	≤ 5	–	10 to 100	–	10 to 100	–

Further lines, with some results ahead:

IC50 [1] [nM]	IC50 ([2]; Homo sapiens, U2OS) [nM]	IC50 (PD-L1) [nM]	IC50 [2] [nM]	SMILES	EC50 ([3]; Cricetulus griseus, CHO-K1) [nM]	EC50 [3] [nM]
≤ 5	≤ 10	10 to 100	–	Cc1c(NC(=O)c2nc3c(n2C)CCN(C2CCC(O)CC2)C3)cccc1-c1cccc(NC(=O)c2nc3c(n2C)CCN(CCC24CCC(C(=O)O)(CC2)C4)C3)c1Cl (single isomer, unassigned) [61 (compound 1), 4-(2-(2-((2-chloro-3′-(5-(4-hydroxycyclohexyl)-1-methyl-4,5,6,7-tetrahydro-1H-imidazo[4,5-c]pyridine-2-carboxamido)-2′-methyl-[1,1′-biphenyl]-3-yl)carbamoyl)-1-methyl-1,4,6,7-tetrahydro-5H-imidazo[4,5-c]pyridin-5-yl)ethyl)bicyclo[2.2.1]heptane-1-carboxylic acid]	10 to 100	–
≤ 5	–	10 to 100	–	Cc1c(NC(=O)c2nc3c(n2C)CCN(C2CCOCC2)C3)cccc1-c1cccc(NC(=O)c2nc3c(n2C)CCN(CCC24CCC(C(=O)O)(CC2)C4)C3)c1Cl [Example 28, 4-(2-(2-((2-chloro-2′-methyl-3′-(1-methyl-5-(tetrahydro-2H-pyran-4-yl)-4,5,6,7-tetrahydro-1H-imidazo[4,5-c]pyridine-2-carboxamido)-[1,1′-biphenyl]-3-yl)carbamoyl)-1-methyl-1,4,6,7-tetrahydro-5H-imidazo[4,5-c]pyridin-5-yl)ethyl)bicyclo[2.2.1]heptane-1-carboxylic acid]	10 to 100	–
≤ 5	–	10 to 100	–	Cc1c(NC(=O)c2nc3c(n2C)CCN(C[C@H](C)O)C3)cccc1-c1cccc(NC(=O)c2nc3c(n2C)CCN(CCC24CCC(C(=O)O)(CC2)C4)C3)c1Cl [Example 32, (S)-4-(2-(2-((2-chloro-3′-(5-(2-hydroxypropyl)-1-methyl-4,5,6,7-tetrahydro-1H-imidazo[4,5-c]pyridine-2-carboxamido)-2′-methyl-[1,1′-biphenyl]-3-yl)carbamoyl)-1-methyl-1,4,6,7-tetrahydro-5H-imidazo[4,5-c]pyridin-5-yl)ethyl)bicyclo[2.2.1]heptane-1-carboxylic acid]	10 to 100	–
≤ 5	–	10 to 100	–	Cn1c(C(=O)Nc2cccc(-c3cccc(NC(=O)c4nc5c(n4C)CCN(CCC46CCC(C(=O)O)(CC4)C6)C5)c3Cl)c2Cl)nc2c1CCN(CCCCC(=O)O)C2 [Example 63, 4-(2-(2-((3′-(5-(4-carboxybutyl)-1-methyl-4,5,6,7-tetrahydro-1H-imidazo[4,5-c]pyridine-2-carboxamido)-2,2′-dichloro-[1,1′-biphenyl]-3-yl)carbamoyl)-1-methyl-1,4,6,7-tetrahydro-5H-imidazo[4,5-c]pyridin-5-yl)ethyl)bicyclo[2.2.1]heptane-1-carboxylic acid]	10 to 100	–
≤ 5	–	10 to 100	–	CN(C)C(=O)CCCCN1CCc2c(nc(C(=O)Nc3cccc(-c4cccc(NC(=O)c5nc6c(n5C)CCN(CCC57CCC(C(=O)O)(CC5)C7)C6)c4Cl)c3Cl)n2C)C1 [Example 64, 4-(2-(2-((2,2′-dichloro-3′-(5-(5-(dimethylamino)-5-oxopentyl)-1-methyl-4,5,6,7-tetrahydro-1H-imidazo[4,5-c]pyridine-2-carboxamido)-[1,1′-biphenyl]-3-yl)carbamoyl)-1-methyl-1,4,6,7-tetrahydro-5H-imidazo[4,5-c]pyridin-5-yl)ethyl)bicyclo[2.2.1]heptane-1-carboxylic Acid]	≤ 10	–
